Experimental data reported in ChEMBL document CHEMBL5385848, “Discovery of novel hydroxyamidine based indoleamine 2,3-dioxygenase 1 (IDO1) and thioredoxin reductase 1 (TrxR1) dual inhibitors” (Eur J Med Chem, 2023).
The source made the active and inactive calls. The rule behind the calls is not given here.

Columns and labels:
[1] = molecular target: T1, Thioredoxin reductase 1, cytoplasmic (Rattus norvegicus, UniProt O89049); test: Inhibition of recombinant rat TrxR1 incubated for 1 hr in presence of NADPH by microplate reader analysis
T1 sequence (O89049 whole entry): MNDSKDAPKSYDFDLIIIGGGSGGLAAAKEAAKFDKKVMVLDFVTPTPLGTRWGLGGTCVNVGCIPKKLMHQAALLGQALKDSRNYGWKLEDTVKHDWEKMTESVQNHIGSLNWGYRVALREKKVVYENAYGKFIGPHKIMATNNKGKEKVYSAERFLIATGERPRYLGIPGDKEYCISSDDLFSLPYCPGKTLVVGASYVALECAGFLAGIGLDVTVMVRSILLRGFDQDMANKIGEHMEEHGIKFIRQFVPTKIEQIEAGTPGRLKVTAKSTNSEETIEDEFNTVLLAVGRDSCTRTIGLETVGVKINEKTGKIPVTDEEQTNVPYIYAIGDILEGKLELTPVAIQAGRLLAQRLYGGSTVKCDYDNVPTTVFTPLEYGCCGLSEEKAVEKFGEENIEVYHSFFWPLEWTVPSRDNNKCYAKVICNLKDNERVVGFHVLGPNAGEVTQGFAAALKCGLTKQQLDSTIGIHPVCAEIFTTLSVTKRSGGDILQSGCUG

[2] = tested on: HCT-116; test: Cytotoxicity against human HCT-116 cells incubated for 24 hrs in presence of NAC CCK-8 assay; type: functional, cell-based; settings: HCT-116, 24 h
[3] = molecular target: T2, Indoleamine 2,3-dioxygenase 1 (Homo sapiens, UniProt P14902); test: Inhibition of IDO1 in human HeLa cells using L-Tryptophan as substrate incubated for 24 hrs by microplate reader analysis; type: cell-based
T2 sequence (P14902 whole entry): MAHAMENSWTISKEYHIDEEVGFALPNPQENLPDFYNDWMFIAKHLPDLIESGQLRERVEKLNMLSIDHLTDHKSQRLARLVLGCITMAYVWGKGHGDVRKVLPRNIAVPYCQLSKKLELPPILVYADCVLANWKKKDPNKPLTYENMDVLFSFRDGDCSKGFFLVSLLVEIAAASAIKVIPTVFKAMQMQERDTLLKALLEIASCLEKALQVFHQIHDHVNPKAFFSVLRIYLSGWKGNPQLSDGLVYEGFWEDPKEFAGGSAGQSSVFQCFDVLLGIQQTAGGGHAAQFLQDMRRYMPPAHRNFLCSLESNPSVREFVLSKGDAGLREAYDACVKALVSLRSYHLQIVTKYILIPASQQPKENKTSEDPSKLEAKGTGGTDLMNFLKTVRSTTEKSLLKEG

[4] = Toxicity in athymic BALB/c mouse xenografted with human HCT-116 cells assessed as change in liver morphology at 15 to 60 mg/kg, ig administered daily for 28 days and measured every 4 days; type: organism-based; settings: in vivo, po, 672 h, dose 15-60 mg/kg, time 28 day
[5] = molecular target: Thioredoxin reductase 2, mitochondrial (Homo sapiens, UniProt Q9NNW7); test: Inhibition of TrxR2 (unknown origin) incubated for 1 hr in presence of NADPH by microplate reader analysis
Sequence of Thioredoxin reductase 2, mitochondrial (Q9NNW7 whole entry): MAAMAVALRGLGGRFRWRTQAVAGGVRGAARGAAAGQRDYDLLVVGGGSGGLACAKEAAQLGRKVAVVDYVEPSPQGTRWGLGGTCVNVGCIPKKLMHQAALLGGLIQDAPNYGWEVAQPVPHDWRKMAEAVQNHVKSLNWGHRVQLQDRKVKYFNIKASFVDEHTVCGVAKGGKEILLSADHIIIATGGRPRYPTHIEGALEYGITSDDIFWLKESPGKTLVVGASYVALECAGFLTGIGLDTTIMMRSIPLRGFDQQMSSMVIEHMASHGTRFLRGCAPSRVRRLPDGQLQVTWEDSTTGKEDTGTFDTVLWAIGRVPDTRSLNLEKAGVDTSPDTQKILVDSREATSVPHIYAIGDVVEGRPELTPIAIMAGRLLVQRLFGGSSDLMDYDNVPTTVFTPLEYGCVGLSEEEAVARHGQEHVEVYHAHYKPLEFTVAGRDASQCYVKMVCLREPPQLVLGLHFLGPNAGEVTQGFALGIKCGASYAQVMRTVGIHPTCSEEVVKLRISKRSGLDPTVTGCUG

[6] = molecular target: Indoleamine 2,3-dioxygenase 1 (Mus musculus) (UniProt P28776); test: In vivo inhibition of IDO1 in C57BL/6 mouse assessed as reduction in plasma Kyn/Trp ratio at 60 mg/kg, po administered once daily by LC-MS/MS analysis; type: functional, organism-based
Sequence of Indoleamine 2,3-dioxygenase 1 (Mus musculus) (P28776 whole entry, looked up): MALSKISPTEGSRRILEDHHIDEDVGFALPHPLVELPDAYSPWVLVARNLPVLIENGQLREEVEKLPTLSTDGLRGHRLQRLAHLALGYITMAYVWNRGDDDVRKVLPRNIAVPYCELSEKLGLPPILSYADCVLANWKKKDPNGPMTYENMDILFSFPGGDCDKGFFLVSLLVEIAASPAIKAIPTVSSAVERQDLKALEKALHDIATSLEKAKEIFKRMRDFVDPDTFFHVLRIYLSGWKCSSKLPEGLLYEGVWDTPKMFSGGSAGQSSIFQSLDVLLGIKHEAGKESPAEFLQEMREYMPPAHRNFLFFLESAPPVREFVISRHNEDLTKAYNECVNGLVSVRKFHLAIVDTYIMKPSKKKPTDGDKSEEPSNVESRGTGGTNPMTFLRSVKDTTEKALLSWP

[7] = tested on: HeLa; test: Induction of ROS generation in human HeLa cells at 10 uM incubated for 4 hrs by DCFH-DA staining based flow cytometry analysis; type: functional, cell-based
[8] = molecular target: T2, Indoleamine 2,3-dioxygenase 1; test: Inhibition of recombinant human IDO1 using L-Trp as substrate incubated for 1 hr
[9] = tested on: IDO1; test: Selectivity ratio of IC50 for cytotoxicity against human HeLa cells to EC50 for inhibition of IDO1 in human HeLa cells; type: cell-based; settings: read-out: Ratio IC50/EC50
[10] = tested on: HeLa; test: Cytotoxicity against TrxR1 knockdown human HeLa cells incubated for 24 hrs by CCK-8 assay (reference value: 13.79 +/- 2 uM); type: functional, cell-based
[11] = tested on: HeLa; test: Cytotoxicity against IDO1 knockdown human HeLa cells incubated for 24 hrs by CCK-8 assay (reference value: 45.93 +/- 2.23 nM); type: functional, cell-based
[12] = tested on: HCT-116; test: Induction of apoptosis in human HCT-116 cells assessed as apoptotic rate at 5 uM incubated for 24 hrs by Annexin-V/PI staining based flow cytometry analysis; type: functional
[13] = molecular target: Indoleamine 2,3-dioxygenase 1 (Mus musculus) (UniProt P28776); test: In vivo inhibition of IDO1 in BALB/c mouse implanted with mouse CT-26 cells assessed as reduction in plasma Kyn/Trp ratio at 60 mg/kg, po administered once daily by LC-MS/MS analysis; type: functional, organism-based
[14] = tested on: CT26; test: Antitumor activity against mouse CT26 cells implanted in athymic nude BALB/c mouse assessed as reduction in proliferative nTreg lymphocytes at 15 to 60 mg/kg, ig administered daily for 28 days and measured every 4 days by immunofluorescence analysis; type: functional, organism-based; settings: dose 15-60 mg/kg, time 28.0 day
[15] = tested on: HeLa; test: Cytotoxicity against human HeLa cells incubated for 24 hrs in presence of NAC CCK-8 assay; type: functional, cell-based
[16] = Toxicity in athymic BALB/c mouse xenografted with human HCT-116 cells assessed as change in kidney morphology at 15 to 60 mg/kg, ig administered daily for 28 days and measured every 4 days; type: organism-based; settings: in vivo, po, 672 h, dose 15-60 mg/kg, time 28 day
[17] = tested on: CT26; test: Antitumor activity against mouse CT26 cells implanted in athymic nude BALB/c mouse assessed as increase in CTL proliferation by measuring Ki67 expression at 60 mg/kg, ig administered daily for 28 days and measured every 4 days by immunofluorescence analysis; type: functional, organism-based; settings: time 28.0 day
[18] = tested on: HeLa; test: Cytotoxicity against human HeLa cells transfected with TrxR1 siRNA incubated for 24 hrs by CCK-8 assay (reference value: 9.74 +/- 1.64 uM); type: functional, cell-based
[19] = tested on: HCT-116; test: Cytotoxicity against human HCT-116 cells transfected with IDO1 siRNA incubated for 24 hrs by CCK-8 assay (reference value: 3.49 +/- 0.28 uM); type: functional, cell-based; settings: HCT-116, 24 h
[20] = molecular target: Indoleamine 2,3-dioxygenase 1 (Mus musculus) (UniProt P28776); test: In vivo inhibition of IDO1 in BALB/c mouse implanted with mouse CT-26 cells assessed as reduction in tumor Kyn/Trp ratio at 60 mg/kg, po administered once daily by LC-MS/MS analysis; type: functional, organism-based
[21] = molecular target: Indoleamine 2,3-dioxygenase 1 (Mus musculus) (UniProt P28776); test: In vivo inhibition of IDO1 in C57BL/6 mouse assessed as reduction in plasma Kyn level at 60 mg/kg, po administered once daily by LC-MS/MS analysis; type: functional, organism-based
[22] = molecular target: Indoleamine 2,3-dioxygenase 1 (Mus musculus) (UniProt P28776); test: In vivo inhibition of IDO1 in BALB/c mouse implanted with mouse CT-26 cells assessed as increase in plasma Trp level at 60 mg/kg, po administered once daily by LC-MS/MS analysis; type: functional, organism-based
[23] = Cytotoxicity against human HCT-116 cells incubated for 48 hrs by CCK-8 assay; type: toxicity, cell-based
[24] = molecular target: Indoleamine 2,3-dioxygenase 1 (Mus musculus) (UniProt P28776); test: In vivo inhibition of IDO1 in C57BL/6 mouse assessed as increase in plasma Trp level at 60 mg/kg, po administered once daily by LC-MS/MS analysis; type: functional, organism-based
[25] = Toxicity in athymic BALB/c mouse xenografted with human HCT-116 cells assessed as effect on body weight at 15 to 60 mg/kg, ig administered daily for 28 days and measured every 4 days; type: organism-based; settings: in vivo, po, 672 h, dose 15-60 mg/kg, time 28 day
[26] = molecular target: Tryptophan 2,3-dioxygenase (Homo sapiens, UniProt P48775); test: Inhibition of TDO (unknown origin) using L-Trp as substrate incubated for 75 mins
Sequence of Tryptophan 2,3-dioxygenase (P48775 whole entry): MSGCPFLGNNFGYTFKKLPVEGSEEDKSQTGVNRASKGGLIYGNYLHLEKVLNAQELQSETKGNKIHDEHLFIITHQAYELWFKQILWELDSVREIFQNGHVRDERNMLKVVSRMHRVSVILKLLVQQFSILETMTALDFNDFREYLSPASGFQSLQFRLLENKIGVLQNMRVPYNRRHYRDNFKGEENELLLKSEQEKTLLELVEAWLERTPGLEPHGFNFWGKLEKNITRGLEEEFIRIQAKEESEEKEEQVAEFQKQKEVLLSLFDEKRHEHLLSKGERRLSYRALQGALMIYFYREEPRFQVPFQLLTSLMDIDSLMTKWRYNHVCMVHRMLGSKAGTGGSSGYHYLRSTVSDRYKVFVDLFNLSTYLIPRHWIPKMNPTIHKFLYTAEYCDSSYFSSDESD

[27] = tested on: HeLa; test: Induction of cell cycle arrest in human HeLa cells assessed as G1/S phase arrest at 2.5 to 10 uM pretreated with NAC for 2 hrs followed by compound addition and measured after 12 hrs by PI staining based flow cytometry analysis; type: functional; settings: dose 2.5-10 µM
[28] = tested on: CT26; test: Antitumor activity against ig dosed mouse CT26 cells implanted in […] BALB/c mouse assessed as reduction in tumor volume administered daily for 28 days and measured every 4 days; type: functional, organism-based; settings: dose 15-60 mg/kg, time 28.0 day
[29] = tested on: HCT-116; test: Induction of apoptosis in human HCT-116 cells assessed as apoptotic rate at 10 uM pretreated with NAC incubated for 24 hrs by Annexin-V/PI staining based flow cytometry analysis (reference value: 9.8 +/- 1.59%); type: functional

- IC50 [1]: 3 µM
- EC50 [3]: 45.6 µM
- IC50 [5]: > 500 µM
- Activity [6]: Active
- IC50 [8]: 0.05 µM
- Activity [13]: Active
- Activity [20]: Active
- Activity [21]: Active
- Activity [22]: Active
- Activity [24]: Active
- IC50 [26]: 54.2 µM
Structure (SMILES): O=C(Cc1ccc(O)cc1)Nc1nnc(CCCNc2nonc2/C(=N\O)Nc2ccc(F)c(Br)c2)s1
- IC50 [2]: 60.8 µM
- Activity [4]: Non-Toxic
- Activity [7]: Active
- selectivity ratio [9]: 224
- IC50 [10]: 7.2 µM
- IC50 [11]: 26.1 µM
- Activity [12]: 30.64%
- Activity [14]: Active
- IC50 [15]: 74.2 µM
- Activity [16]: Non-Toxic
- Activity [17]: Active
- IC50 [18]: 4.86 µM
- IC50 [19]: 3.79 µM
- IC50 at 48 h [23]: 3.44 µM
- Activity [25]: Non-Toxic
- Activity [27]: Active
- Activity [28]: Dose-Dependent Effect
- Activity [29]: 15.21%
